Results from patent US12059425B2, “Heterocyclic compounds and uses thereof” (Kumquat Biosciences Inc., priority 2022, dated 2024).

What was measured:
[1] = biological target: T1, K-Ras G12D (Homo sapiens, UniProt P01116, G12D); experiment: PPI-HTRF assay, K-Ras G12D / SOS1 interaction; type: biochemical; settings: HTRF, K-Ras G12D; read-out: PPI-HTRF-5 nM (K-Ras G12D IC50)
T1 construct: made in house; host or cells: E. coli, e.g. BL21 (DE3)
Procedure, shortened: (§1)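 Compound in DMSO is dispensed first, then GST-K-Ras plus anti-GST-Eu(K), then His-hSOS1 plus anti-6His-XL665. Plates incubate about 10 min or longer before HTRF measurement at 620 and 665 nm. IC50 values are derived from the emission ratio for each K-Ras variant.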

[2] = system: A549 cells; experiment: Ras cellular assay, cell proliferation A549; type: cell-based; settings: Homo sapiens
Procedure, shortened: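 G12S-mutant A549 cells (800/well) in RPMI-1640 plus 10% heat-inactivated FBS, standard or ultra-low attachment 384-well plates, dosed the day after plating with a 10-point 3-fold series. Viability by CellTiter-Glo luminescence about 6 days later; IC50 from four-parameter fit.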

[3] = biological target: T2, K-Ras G12S (Homo sapiens, UniProt P01116, G12S); experiment: PPI-HTRF assay, K-Ras G12S / SOS1 interaction; type: biochemical; settings: read-out: PPI-HTRF-5 nM (K-Ras G12S IC50)
T2 construct: made in house; host or cells: E. coli, e.g. BL21 (DE3)
T2 sequence (P01116 1-188 isoform P01116-2 G12S): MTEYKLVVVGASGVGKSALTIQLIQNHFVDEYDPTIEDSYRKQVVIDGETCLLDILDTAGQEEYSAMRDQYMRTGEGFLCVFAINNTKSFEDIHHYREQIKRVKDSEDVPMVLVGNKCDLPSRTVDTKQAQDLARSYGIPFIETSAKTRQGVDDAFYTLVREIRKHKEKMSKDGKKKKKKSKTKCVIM
Procedure, shortened: as §1

[4] = biological target: T3, wildtype K-Ras (Homo sapiens, UniProt P01116); experiment: PPI-HTRF assay, wildtype K-Ras / SOS1 interaction; type: biochemical; settings: HTRF, K-Ras wt; read-out: PPI-HTRF-5 nM (K-Ras wt IC50)
T3 construct: made in house; host or cells: E. coli, e.g. BL21 (DE3)
T3 sequence (P01116 1-188 isoform P01116-2): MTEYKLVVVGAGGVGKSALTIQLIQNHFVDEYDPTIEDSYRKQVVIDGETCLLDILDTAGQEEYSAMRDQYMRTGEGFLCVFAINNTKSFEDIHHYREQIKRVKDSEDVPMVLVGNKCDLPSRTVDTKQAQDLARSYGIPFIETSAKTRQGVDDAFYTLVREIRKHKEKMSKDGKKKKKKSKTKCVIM
Procedure, shortened: as §1

[5] = biological target: T4, K-Ras G12V (Homo sapiens, UniProt P01116, G12V); experiment: PPI-HTRF assay, K-Ras G12V / SOS1 interaction; type: biochemical; settings: HTRF, K-Ras G12V; read-out: PPI-HTRF-5 nM (K-Ras G12V IC50)
T4 construct: made in house; host or cells: E. coli, e.g. BL21 (DE3)
T4 sequence (P01116 1-188 isoform P01116-2 G12V): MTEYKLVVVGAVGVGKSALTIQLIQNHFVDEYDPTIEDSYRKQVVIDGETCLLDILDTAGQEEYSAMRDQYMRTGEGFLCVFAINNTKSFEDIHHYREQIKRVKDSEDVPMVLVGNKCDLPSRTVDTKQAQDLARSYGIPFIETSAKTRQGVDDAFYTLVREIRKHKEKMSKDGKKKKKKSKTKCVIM
Procedure, shortened: as §1

[6] = system: SW620 cells; experiment: Ras cellular assay, cell proliferation SW620; type: cell-based; settings: Homo sapiens, SW-620
Source text: For example, this assay can be also used to assess selective growth inhibition of a mutant Ras protein relative to a wildtype, or relative to a different mutant Ras protein.

[7] = system: GP2D cells; experiment: Ras cellular assay, cell proliferation GP2D; type: cell-based
Procedure, shortened: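 Growth inhibition read by CellTiter-Glo luminescence roughly 5 days after compound addition, which followed overnight plating of G12D-mutant GP2D cells (e.g., 800 per well). Compounds were tested as a serial dilution (e.g., 9 points, 3-fold), with IC50 fitted by four-parameter model.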

T1 sequence (P01116 1-188 isoform P01116-2 G12D): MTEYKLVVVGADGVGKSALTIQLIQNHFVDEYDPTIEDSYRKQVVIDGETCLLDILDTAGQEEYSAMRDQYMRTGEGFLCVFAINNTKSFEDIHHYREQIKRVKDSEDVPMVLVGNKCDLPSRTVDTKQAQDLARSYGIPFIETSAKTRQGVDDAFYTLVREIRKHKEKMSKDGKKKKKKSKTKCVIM

IC50 [1] | IC50 [2] | IC50 [3] | IC50 [4] | IC50 [5] | IC50 [6] | Compound | IC50 [7]
< 5 µM | > 5 µM | < 5 µM | < 5 µM | < 5 µM | < 5 µM | N#Cc1c(N)sc2c(F)ccc(-c3c(Cl)c4c5c(nc(OC[C@@]67CCCN6C[C@H](F)C7)nc5c3F)N3CC[C@@H]3CO4)c12 [compound 139, 2-amino-4-((11aR)-9-chloro-7-fluoro-5-(((2R,7aS)-2-fluorotetrahydro-1H-pyrrolizin-7a(5H)-yl)methoxy)-1,2,11,11a-tetrahydroazeto[2′,1′:3,4][1,4]oxazepino [5,6,7-de]quinazolin-8-yl)-7-fluorobenzo[b]thiophene-3-carbonitrile] | < 5 µM
< 5 µM | < 5 µM | < 5 µM | < 5 µM | < 5 µM | < 5 µM | N#Cc1c(N)sc2c(F)ccc(-c3c(Cl)c4c5c(nc(OC[C@@]67CCCN6C[C@H](F)C7)nc5c3F)N3CCNCCC3CO4)c12 (stereo partly drawn) [compound 142, 2-amino-4-(6-chloro-4-fluoro-2-(((2R,7aS)-2-fluorotetrahydro-1H-pyrrolizin-7a(5H)-yl)methoxy)-8a,9,10,11,12,13-hexahydro-8H-[1,4]diazepino[7′,1′:3,4][1,4]oxazepino [5,6,7-de]quinazolin-5-yl)-7-fluorobenzo[b]thiophene-3-carbonitrile] | < 5 µM
< 5 µM | < 5 µM | < 5 µM | < 5 µM | < 5 µM | < 5 µM | N#Cc1c(N)sc2c(F)ccc(-c3c(Cl)c4c5c(nc(OCC67CCCN6C[C@H](F)C7)nc5c3F)N3CC(C#N)CCC3CO4)c12 (stereo partly drawn) [compound 150, 5-(2-amino-3-cyano-7-fluorobenzo[b]thiophen-4-yl)-6-chloro-4-fluoro-2-(((2R)-2-fluorotetrahydro-1H-pyrrolizin-7a(5H)-yl)methoxy)-8,8a,9,10,11,12-hexahydropyrido[2′,1′:3,4][1,4]oxazepino [5,6,7-de]quinazoline-11-carbonitrile] | < 5 µM
< 5 µM | < 5 µM | < 5 µM | < 5 µM | < 5 µM | < 5 µM | N#Cc1c(N)sc2c(F)ccc(-c3c(Cl)c4c5c(nc(OC[C@@]67CCCN6C[C@H](F)C7)nc5c3F)N3CCOCC3CO4)c12 (stereo partly drawn) [compound 116, 2-amino-4-(6-chloro-4-fluoro-2-(((2R,7aS)-2-fluorotetrahydro-1H-pyrrolizin-7a(5H)-yl)methoxy)-8a,9,11,12-tetrahydro-8H-[1,4]oxazino[3′,4′:3,4][1,4]oxazepino[5,6,7-de]quinazolin-5-yl)-7-fluorobenzo[b]thiophene-3-carbonitrile] | < 5 µM
< 5 µM | < 5 µM | < 5 µM | < 5 µM | < 5 µM | < 5 µM | N#Cc1c(N)sc2c(F)ccc(-c3c(Cl)c4c5c(nc(OC[C@@]67CCCN6C[C@H](F)C7)nc5c3F)N3C(CO)CCC3CO4)c12 (stereo partly drawn) [compound 185, 2-amino-4-(6-chloro-4-fluoro-2-(((2R,7aS)-2-fluorotetrahydro-1H-pyrrolizin-7a(5H)-yl)methoxy)-11-(hydroxymethyl)-8a,9,10,11-tetrahydro-8H-pyrrolo[2′,1′:3,4][1,4]oxazepino[5,6,7-de]quinazolin-5-yl)-7-fluorobenzo[b]thiophene-3-carbonitrile] | < 5 µM
< 5 µM | < 5 µM | < 5 µM | < 5 µM | < 5 µM | < 5 µM | CCN1c2nc(OC[C@@]34CCCN3C[C@H](F)C4)nc3c(F)c(-c4ccc(F)c5sc(N)c(C#N)c45)c(Cl)c(c23)OCC2COCC21 (stereo partly drawn) [compound 186, 2-amino-4-(6-chloro-12-ethyl-4-fluoro-2-(((2R,7aS)-2-fluorotetrahydro-1H-pyrrolizin-7a(5H)-yl)methoxy)-8a,9,11a,12-tetrahydro-8H,11H-furo[3′,4′:6,7][1,5]oxazocino[4,3,2-de]quinazolin-5-yl)-7-fluorobenzo[b]thiophene-3-carbonitrile] | < 5 µM
< 5 µM | < 5 µM | < 5 µM | < 5 µM | < 5 µM | < 5 µM | N#Cc1c(N)sc2c(F)ccc(-c3c(Cl)c4c5c(nc(OC[C@@]67CCCN6C[C@H](F)C7)nc5c3F)N3CC5(CCCC3CO4)CN(C(=O)C3CC3(F)F)C5)c12 (stereo partly drawn) [compound 155, 2-amino-4-(3-chloro-1′-(2,2-difluorocyclopropane-1-carbonyl)-1-fluoro-13-(((2R,7aS)-2-fluorotetrahydro-1H-pyrrolizin-7a(5H)-yl)methoxy)-5a,6,7,8-tetrahydro-5H,10H-spiro[azepino[2′,1′:3,4][1,4]oxazepino[5,6,7-de]quinazoline-9,3′-azetidin]-2-yl)-7-fluorobenzo[b]thiophene-3-carbonitrile] | < 5 µM
< 5 µM | < 5 µM | < 5 µM | < 5 µM | < 5 µM | < 5 µM | CN1c2nc(OC[C@@]34CCCN3C[C@H](F)C4)nc3c(F)c(-c4ccc(F)c5sc(N)c(C#N)c45)c(Cl)c(c23)OCC2CNCC21 (stereo partly drawn) [compound 140, 2-amino-4-(6-chloro-4-fluoro-2-(((2R,7aS)-2-fluorotetrahydro-1H-pyrrolizin-7a(5H)-yl)methoxy)-12-methyl-8a,9,10,11,11a,12-hexahydro-8H-pyrrolo[3′,4′:6,7][1,5]oxazocino[4,3,2-de]quinazolin-5-yl)-7-fluorobenzo[b]thiophene-3-carbonitrile] | < 5 µM
< 5 µM | < 5 µM | < 5 µM | < 5 µM | < 5 µM | < 5 µM | N#Cc1c(N)sc2c(F)ccc(-c3c(Cl)c4c5c(nc(OC[C@@]67CCCN6C[C@H](F)C7)nc5c3F)N3CCC3CO4)c12 (stereo partly drawn) [compound 178, 2-amino-4-(6-chloro-4-fluoro-2-(((2R,7aS)-2-fluorotetrahydro-1H-pyrrolizin-7a(5H)-yl)methoxy)-8,8a,9,10-tetrahydroazeto[2′,1′:3,4][1,4]oxazepino [5,6,7-de]quinazolin-5-yl)-7-fluorobenzo[b]thiophene-3-carbonitrile] | < 5 µM
< 5 µM | < 5 µM | < 5 µM | < 5 µM | < 5 µM | < 5 µM | N#CCC1CCC2COc3c(Cl)c(-c4ccc(F)c5sc(N)c(C#N)c45)c(F)c4nc(OCC56CCCN5C[C@H](F)C6)nc(c34)N2C1 (stereo partly drawn) [compound 204, 2-amino-4-(6-chloro-11-(cyanomethyl)-4-fluoro-2-(((2R)-2-fluorotetrahydro-1H-pyrrolizin-7a(5H)-yl)methoxy)-8,8a,9,10,11,12-hexahydropyrido[2′,1′:3,4][1,4]oxazepino [5,6,7-de]quinazolin-5-yl)-7-fluorobenzo[b]thiophene-3-carbonitrile] | < 5 µM
< 5 µM | < 5 µM | < 5 µM | < 5 µM | < 5 µM | < 5 µM | CC1(O)CCN2c3nc(OC[C@@]45CCCN4C[C@H](F)C5)nc4c(F)c(-c5ccc(F)c6sc(N)c(C#N)c56)c(Cl)c(c34)OCC2C1 (stereo partly drawn) [compound 136, 2-amino-4-(3-chloro-1-fluoro-12-(((2R,7aS)-2-fluorotetrahydro-1H-pyrrolizin-7a(5H)-yl)methoxy)-7-hydroxy-7-methyl-5,5a,6,7,8,9-hexahydropyrido[2′,1′:3,4][1,4]oxazepino [5,6,7-de]quinazolin-2-yl)-7-fluorobenzo[b]thiophene-3-carbonitrile] | < 5 µM
< 5 µM | < 5 µM | < 5 µM | < 5 µM | < 5 µM | < 5 µM | N#Cc1c(N)sc2c(F)ccc(-c3c(Cl)c4c5c(nc(OCC67CCCN6C[C@H](F)C7)nc5c3F)N3CCCC[C@@H]3CO4)c12 (stereo partly drawn) [compound 103, 2-amino-4-((5aR)-3-chloro-1-fluoro-12-(((2R)-2-fluorotetrahydro-1H-pyrrolizin-7a(5H)-yl)methoxy)-5,5a,6,7,8,9-hexahydropyrido[2′,1′:3,4][1,4]oxazepino [5,6,7-de]quinazolin-2-yl)-7-fluorobenzo[b]thiophene-3-carbonitrile] | < 5 µM
